Laboratory results as given in patent US20140213446A1, “HERBICIDAL COMPOSITIONS AND METHODS USING COMBINATIONS OF 4-AMINO-3-CHLORO-6-(4-CHLORO-2-FLUORO-3-METHOXYPHENYL)PYRIDINE-2-CARBOXYLIC ACID OR A DERIVATIVE THEREOF AND AN ARYLOXYPHENOXY PROPIONATE ACCASE INHIBITOR HERBICIDE” (DOW AGROSCIENCES LLC, priority 2013, published 2014).

Experiments:
Assay in all cases: Postemergent herbicidal activity, greenhouse
Assay type in all cases: in vivo
[1] = test system: AMARE Amaranthus retroflexus L. (redroot pigweed)
Protocol: (§1) Evaluation of Postemergent Herbicidal Activity. Seeds or nutlets of the desired test plant species were planted in Sun Gro Metro-Mix® 360 planting mixture, which typically has a pH of 6.0 to 6.8 and an organic matter content of about 30 percent, in plastic pots with a surface area of 64 square centimeters (cm^2). When required to ensure good germination and healthy plants, a fungicide treatment and/or other chemical or physical treatment was applied. The plants were grown for 7-21 days (d) in a greenhouse with an approximate 15 hour (h) photoperiod which was maintained at about 23-29° C. during the day and 22-28° C. during the night. Nutrients and water were added on a regular basis and supplemental lighting was provided with overhead metal halide 1000-Watt lamps as necessary. The plants were employed for testing when they reached the first or second true leaf stage.
(§2) A weighed amount, determined by the highest rate to be tested, of each test compound was placed in a 25 milliliter (mL) glass vial and was dissolved in 4 mL of a 97:3 volume per volume (v/v) mixture of acetone and dimethyl sulfoxide (DMSO) to obtain concentrated stock solutions. […] The concentrated stock solutions obtained were diluted with 20 mL of an aqueous mixture containing acetone, water, isopropyl alcohol, DMSO, Atplus 411F crop oil concentrate, and Triton® X-155 surfactant in a 48.5:39:10:1.5:1.0:0.02 v/v ratio to obtain spray solutions containing the highest application rates. Additional application rates were obtained by serial dilution of 12 mL of the high rate solution into a solution containing 2 mL of a 97:3 v/v mixture of acetone and DMSO and 10 mL of an aqueous mixture containing acetone, water, isopropyl alcohol, DMSO, Atplus 411F crop oil concentrate, and Triton X-155 surfactant in a 48.5:39:10:1.5:1.0:0.02 v/v ratio to obtain ½X, ¼X, ⅛X and 1/16X rates of the high rate. Compound requirements are based upon a 12 mL application volume at a rate of 187 liters per hectare (L/ha). Formulated compounds were applied to the plant material with an overhead Mandel track sprayer equipped with 8002E nozzles calibrated to deliver 187 L/ha over an application area of 0.503 square meters (m^2) at a spray height of 18 inches ([…]) above the average plant canopy height. Control plants were sprayed in the same manner with the solvent blank.
(§3) Treatments consisted of the methyl ester of 4-amino-3-chloro-6-(4-chloro-2-fluoro-3-methoxyphenyl)pyridine-2-carboxylic acid (Cmpd 1) as technical grade material and fluazifop-P-butyl (Fusilade® DX), haloxyfop-P-methyl (GALLANT® super), and quizalofop-P-ethyl (Assure® II) alone and in combination. The form of compound of formula (I) and fluazifop-P-butyl, haloxyfop-P-methyl, and quizalofop-P-ethyl were applied on an acid equivalent basis.
(§4) The treated plants and control plants were placed in a greenhouse as described above and watered by subirrigation to prevent wash-off of the test compounds. After 14 d, the condition of the test plants as compared with that of the untreated plants was determined visually and scored on a scale of 0 to 100 percent where 0 corresponds to no injury and 100 corresponds to complete kill.
(§5) Results of testing mixtures in accordance with this disclosure and of the components of the mixtures separately against various common weeds in greenhouse trials are reported in the following tables. The reported values are of percent (%) control or percent (%) injury, visually rated. Colby's equation was used to determine the herbicidal effects expected from the mixtures (Colby, S. R. Calculation of the synergistic and antagonistic response of herbicide combinations. Weeds 1967, 15, 20-22.).
(§6) More specifically, the following equation was used to calculate the expected activity of mixtures containing two active ingredients, A and B:
(§7) A=observed efficacy of active ingredient A at the same concentration as used in the mixture; B=observed efficacy of active ingredient B at the same concentration as used in the mixture. […]

[2] = test system: BRSNW Brassica napus (winter oilseed rape)
Protocol: as §1, §2, §3, §4, §5, §6, §7

[3] = test system: CHEAL Chenopodium album L. (common lambsquarters)
Protocol: as §1, §2, §3, §4, §5, §6, §7

[4] = test system: CIRAR Cirsium arvense (L.) Scop. (Canada thistle)
Protocol: as §1, §2, §3, §4, §5, §6, §7

[5] = test system: IPOHE Ipomoea hederacea (L.) Jacq. (ivyleaf momingglory)
Protocol: as §1, §2, §3, §4, §5, §6, §7

[6] = test system: STEME Stellaria media (L.) Vill. (common chickweed)
Protocol: as §1, §2, §3, §4, §5, §6, §7

[7] = test system: VIOTR Viola tricolor L. (wild violet)
Protocol: as §1, §2, §3, §4, §5, §6, §7

Measured: Visual Growth Reduction (%) 14 DAA Obs

CCOC(=O)[C@@H](C)Oc1ccc(Oc2cnc3cc(Cl)ccc3n2)cc1 [Quizalofop-P-ethyl, quizalofop-P-ethyl]
0%: [1]; Quizalofop-P 37.5 g ae/ha | [1]; Quizalofop-P 75 g ae/ha | [1]; Quizalofop-P 150 g ae/ha | [2]; Quizalofop-P 37.5 g ae/ha | [2]; Quizalofop-P 75 g ae/ha | [2]; Quizalofop-P 150 g ae/ha | [3]; Quizalofop-P 37.5 g ae/ha | [3]; Quizalofop-P 75 g ae/ha | [3]; Quizalofop-P 150 g ae/ha | [4]; Quizalofop-P 37.5 g ae/ha | [4]; Quizalofop-P 75 g ae/ha | [4]; Quizalofop-P 150 g ae/ha | [5]; Quizalofop-P 37.5 g ae/ha | [5]; Quizalofop-P 75 g ae/ha | [5]; Quizalofop-P 150 g ae/ha | [6]; Quizalofop-P 37.5 g ae/ha | [6]; Quizalofop-P 75 g ae/ha | [6]; Quizalofop-P 150 g ae/ha | [7]; Quizalofop-P 37.5 g ae/ha | [7]; Quizalofop-P 75 g ae/ha | [7]; Quizalofop-P 150 g ae/ha
